According to US10301317B2, “Inhibitors of ERK and methods of use” (Kura Oncology, Inc., priority 2013, dated 2019):

Key:
A375 cells = assay: Tumor cell line proliferation assay (CellTiter Glo), A375; type: cell-based; settings: Homo sapiens, A-375, 96 h, read-out: A375 (V599E) Cell Proliferation IC50
[1] = system: phospho-p90 RSK (RSK1 Thr359/Ser363) in A375 (Braf V600E) cells; assay: Phospho-p90 RSK ELISA using A375 (Braf V600E) cells; type: cell-based; settings: Homo sapiens, A-375, 2 hours compound treatment, read-out: Cellular Phospho-p90RSK IC50

SMILES | IC50 (A375 cells) [nM] | IC50 [1] [nM]
COc1cc(-c2n[nH]c3cc4c(cc23)CN([C@@H]2CCCN(Cc3ccc(F)cc3F)C2)C(=O)N4)ccn1 [Example 271] | ≤ 250 | ≤ 250
Cc1cc(-c2n[nH]c3cc4c(cc23)CN([C@@H]2CN(C(C)C)C[C@H]2c2ccccc2)C(=O)N4)ccn1 (racemic) [Example 279] | ≤ 250 | ≤ 250
Cc1cc(-c2n[nH]c3cc4c(cc23)CN([C@@H]2CN(CC#N)C[C@H]2c2ccccc2)C(=O)N4)ccn1 (mixture of isomers) [Example 366] | > 1000 | ≤ 250
Cc1cc(-c2n[nH]c3cc4c(cc23)CN([C@@H]2CN(C)C[C@H]2c2ccccc2)C(=O)N4)ccn1 (racemic) [Example 241] | ≤ 250 | ≤ 250
Cc1cc(-c2n[nH]c3cc4c(cc23)CN([C@H]2CCN(Cc3ccccc3)C2)C(=O)N4)ccn1 [Example 301] | 250 to 1000 | ≤ 250
CC(c1ccccc1)c1cc2cc3c(NC4CCOCC4)n[nH]c3cc2[nH]c1=O (centres unmarked) [Example 338] | ≤ 250 | ≤ 250
Cc1cc(-c2n[nH]c3cc4c(cc23)CN([C@@H]2CN(C)C[C@H]2c2ccc(F)cc2)C(=O)N4)cc(C)n1 (racemic) [Example 305] | ≤ 250 | ≤ 250
COc1ncc(-c2n[nH]c3cc4c(cc23)CN(C2CN(Cc3ccccc3)CC(F)(F)C2)C(=O)N4)cn1 (centres unmarked) [Example 320] | 250 to 1000 | ≤ 250
Cc1cc(-c2n[nH]c3cc4c(cc23)CN([C@@H]2CCCN(Cc3ccsc3)C2)C(=O)N4)ccn1 [Example 252] | ≤ 250 | ≤ 250
Cc1cc(-c2n[nH]c3cc4c(cc23)CN([C@@H]2CN(CC(F)F)C[C@H]2c2ccccc2)C(=O)N4)ccn1 (mixture of isomers) [Example 362] | ≤ 250 | ≤ 250
Cc1cc(-c2n[nH]c3cc4c(cc23)CN([C@@H]2CCCN(Cc3csc(C)c3)C2)C(=O)N4)ccn1 [Example 251] | ≤ 250 | ≤ 250
COc1ccc(-c2n[nH]c3cc4c(cc23)CN(Cc2cc(F)cc(F)c2)C(=O)N4)cn1 [Example 92] | 250 to 1000 | ≤ 250
Cc1cc(-c2n[nH]c3cc4c(cc23)CN([C@@H]2CN(CC(F)(F)F)C[C@H]2c2ccccc2)C(=O)N4)cc(C)n1 [Example 242] | 250 to 1000 | ≤ 250
CC(c1ccccc1)c1cc2cc3c(-c4ccncc4)n[nH]c3cc2[nH]c1=O (centres unmarked) [Example 326] | ≤ 250 | ≤ 250
Cc1cc(-c2n[nH]c3cc4c(cc23)CN([C@@H]2CCCN(Cc3ccc(F)cc3)C2)C(=O)N4)ccn1 [Example 151] | ≤ 250 | > 1000
Cc1cc(-c2n[nH]c3cc4c(cc23)CN([C@H]2CN(Cc3ccccc3)CC(F)(F)C2)C(=O)N4)ccn1 [Example 264] | ≤ 250 | ≤ 250
Cc1cc(-c2n[nH]c3cc4c(cc23)CN(Cc2cccc(C(F)(F)F)c2)C(=O)N4)ccn1 [Example 240] | ≤ 250 | ≤ 250
Cc1cc(-c2n[nH]c3cc4c(cc23)CN(C2CCC2)C(=O)N4)ccn1 [Example 243] | ≤ 250 | ≤ 250
CC(c1ccccc1)c1cc2cc3c(-c4ccnc(N5CCOCC5)c4)n[nH]c3cc2[nH]c1=O (centres unmarked) [Example 325] | ≤ 250 | ≤ 250
[2H]C([2H])(c1ccccc1)N1CCC[C@@H](N2Cc3cc4c(-c5ccnc(C)c5)n[nH]c4cc3NC2=O)C1 [Example 148] | ≤ 250 | ≤ 250

SMILES | IC50 (A375 cells) [nM] | IC50 [1] [nM]
Cn1cc(-c2n[nH]c3cc4c(cc23)CN([C@@H]2CCCN(Cc3ccccc3)C2)C(=O)N4)cn1 [Example 285] | ≤ 250 | ≤ 250
Cc1cc(-c2n[nH]c3cc4c(cc23)CN([C@@H]2CCCN(Cc3cccc(F)c3)C2)C(=O)N4)ccn1 [Example 184] | ≤ 250 | ≤ 250
COc1ncc(-c2n[nH]c3cc4c(cc23)CN([C@@H]2CCCN(Cc3ccc(F)cc3F)C2)C(=O)N4)cn1 [Example 280] | ≤ 250 | ≤ 250
Cc1cc(-c2n[nH]c3cc4c(cc23)CN([C@@H]2CN(C)C[C@H]2c2ccccc2F)C(=O)N4)cc(C)n1 (racemic) [Example 306] | ≤ 250 | ≤ 250
Cc1cc(-c2n[nH]c3cc4c(cc23)CN([C@@H]2CN(CC(F)(F)F)C[C@H]2C(F)(F)F)C(=O)N4)ccn1 [Example 331] | 250 to 1000 | 250 to 1000
COc1ncc(-c2n[nH]c3cc4c(cc23)CN([C@@H]2CCCN(Cc3ccccc3)C2)C(=O)N4)cn1 [Example 104] | ≤ 250 | ≤ 250
C=C(c1ccccc1)c1cc2cc3c(-c4ccnc(C)c4)n[nH]c3cc2[nH]c1=O [Example 269] | ≤ 250 | ≤ 250
CC(c1ccccc1)c1cc2cc3c(-c4ccnc(N5CCN(C)CC5)c4)n[nH]c3cc2[nH]c1=O (centres unmarked) [Example 318] | ≤ 250 | ≤ 250
Cc1cc(-c2n[nH]c3cc4c(cc23)CN([C@@H]2CCN(CCc3ccccc3)C2)C(=O)N4)ccn1 [Example 153] | ≤ 250 | ≤ 250
COc1ccc(-c2n[nH]c3cc4c(cc23)CN([C@@H]2CCCN(Cc3ccc(F)cc3F)C2)C(=O)N4)cn1 [Example 273] | ≤ 250 | ≤ 250
C[C@H](c1ccccc1)c1cc2cc3c(NC4CCOCC4)n[nH]c3cc2[nH]c1=O [Example 357] | ≤ 250 | ≤ 250
Cc1cc(-c2n[nH]c3cc4c(cc23)CN([C@@H]2CCCN(Cc3ccc(C)s3)C2)C(=O)N4)ccn1 [Example 245] | ≤ 250 | ≤ 250
Cc1cc(-c2n[nH]c3cc4c(cc23)CN([C@@H]2CCN(C(C)C(F)(F)F)C2)C(=O)N4)ccn1 (some centres unmarked) [Example 267] | ≤ 250 | ≤ 250
CCN1C[C@@H](N2Cc3cc4c(-c5ccnc(C)c5)n[nH]c4cc3NC2=O)[C@H](c2ccccc2)C1 (racemic) [Example 278] | ≤ 250 | ≤ 250
Cc1ccc(-c2n[nH]c3cc4c(cc23)CN([C@@H]2CCCN(Cc3ccccc3)C2)C(=O)N4)cn1 [Example 275] | ≤ 250 | ≤ 250
Cc1cc(-c2n[nH]c3cc4c(cc23)CN([C@@H]2CCCN(Cc3ccccc3Cl)C2)C(=O)N4)ccn1 [Example 158] | ≤ 250 | ≤ 250
COc1ncc(-c2n[nH]c3cc4[nH]c(=O)c(C5CCCN(Cc6ccccc6)C5)cc4cc23)cn1 (centres unmarked) [Example 364] | ≤ 250 | ≤ 250
Cc1cc(-c2n[nH]c3cc4c(cc23)CN(CC2CCOCC2)C(=O)N4)ccn1 [Example 211] | 250 to 1000 | ≤ 250
COc1cccc(F)c1CN1CC[C@@H](N2Cc3cc4c(-c5ccnc(C)c5)n[nH]c4cc3NC2=O)C1 [Example 162] | ≤ 250 | ≤ 250
Cc1cc(-c2n[nH]c3cc4c(cc23)CN(C(C)c2nccs2)C(=O)N4)ccn1 (centres unmarked) [Example 234] | 250 to 1000 | ≤ 250

SMILES | IC50 (A375 cells) [nM] | IC50 [1] [nM]
Cc1cc(-c2n[nH]c3cc4c(cc23)CN([C@@H]2CCCN(C(C)C(F)(F)F)C2)C(=O)N4)ccn1 (some centres unmarked) [Example 216] | 250 to 1000 | ≤ 250
CC(c1ccccc1)c1cc2cc3c(-c4ccc(N5CCOCC5)nc4)n[nH]c3cc2[nH]c1=O (centres unmarked) [Example 324] | ≤ 250 | ≤ 250
Cc1cc(-c2n[nH]c3cc4c(cc23)CN(CCNCc2ccccc2)C(=O)N4)ccn1 [Example 149] | ≤ 250 | 250 to 1000
COc1ccc(-c2n[nH]c3cc4c(cc23)CN([C@@H]2CCCN(Cc3ccccc3)C2)C(=O)N4)cn1 [Example 272] | ≤ 250 | ≤ 250
Cc1cc(-c2n[nH]c3cc4c(cc23)CN([C@@H]2CN(C)C[C@H]2c2ccccc2)C(=O)N4)cc(C)n1 (racemic) [Example 248] | ≤ 250 | ≤ 250
Cc1ncc(-c2n[nH]c3cc4c(cc23)CN([C@@H]2CCCN(Cc3ccccc3)C2)C(=O)N4)cn1 [Example 292] | ≤ 250 | ≤ 250
Cc1cc(-c2n[nH]c3cc4c(cc23)CN([C@@H]2CCCN(CC(F)(F)F)C2)C(=O)N4)cc(C)n1 [Example 244] | ≤ 250 | ≤ 250
CC(c1ccccc1)c1cc2cc3c(-c4ccnnc4)n[nH]c3cc2[nH]c1=O (centres unmarked) [Example 323] | 250 to 1000 | ≤ 250
Cc1cc(-c2n[nH]c3cc4c(cc23)CN(Cc2nc(C)c(C)s2)C(=O)N4)ccn1 [Example 228] | 250 to 1000 | ≤ 250
Cc1cc(-c2n[nH]c3cc4c(cc23)CN(Cc2cccs2)C(=O)N4)cc(C)n1 [Example 227] | 250 to 1000 | ≤ 250
Cc1cc(-c2n[nH]c3cc4c(cc23)CN([C@@H]2CCCN(Cc3cccc(F)c3F)C2)C(=O)N4)ccn1 [Example 185] | ≤ 250 | ≤ 250
Cc1cc(-c2n[nH]c3cc4c(cc23)CN([C@@H]2CCCN(C(C)c3ccccc3)C2)C(=O)N4)ccn1 (some centres unmarked) [Example 154] | ≤ 250 | ≤ 250
O=C1Nc2cc3[nH]nc(-c4ccc(N5CCOCC5)nc4)c3cc2CN1Cc1cccc(Cl)c1 [Example 231] | 250 to 1000 | ≤ 250
Cc1cc(-c2n[nH]c3cc4c(cc23)CN([C@@H]2CN(CC(F)(F)F)C[C@H]2c2ccccc2F)C(=O)N4)ccn1 (racemic) [Example 311] | 250 to 1000 | ≤ 250
Cc1cc(-c2n[nH]c3cc4c(cc23)CN([C@@H]2CCCN(Cc3cccc(Cl)c3)C2)C(=O)N4)ccn1 [Example 156] | ≤ 250 | ≤ 250
Cc1cc(-c2n[nH]c3cc4c(cc23)CN(Cc2ccc(F)c(Cl)c2)C(=O)N4)cc(C)n1 [Example 226] | 250 to 1000 | ≤ 250
Cn1cc(-c2n[nH]c3cc4c(cc23)CN([C@@H]2CCCN(Cc3ccc(F)cc3F)C2)C(=O)N4)cn1 [Example 281] | ≤ 250 | ≤ 250
Cc1cc(-c2n[nH]c3cc4c(cc23)CN(C2CCCC2)C(=O)N4)cc(C)n1 [Example 239] | ≤ 250 | ≤ 250
